Results on two compounds are retold here after patent US9538782B2, “Inhibition of sensory irritation during consumption of smokeless tobacco products using a combinatorial approach” (Altria Client Services LLC, priority 2013, dated 2017).

One assay deals with human subjects. Description: human subject study of camphor added to pouches of smokeless tobacco. It counts as in vivo. From the text: Nicotine, for example, is an agonist of the nicotinic acetylcholine receptors, and can produce the sensory irritation, such as burning or stinging, in the mouth or throat, as well as the gastrointestinal discomfort sometimes associated with smokeless tobacco products.

For the next assay, the system named is sensory nerve fibers. Particulars: isolated mouse trachea model; Kichco et al. 2007; cited from earlier work.
The target of another assay is TRPV1 sensory channel (Homo sapiens, UniProt Q8NER1). In words: TRPV1 activation in human tissue culture cells expressing the TRPV1 sensory channel. It counts as cell-based. The note with it: activator capsaicin or camphor applied co-incident with curcumin or 5 minutes after curcumin. The procedure: It will be further understood by those skilled in the art that active ingredients appropriate for use in the present smokeless tobacco product may function as antagonists to one or more receptors and/or channels and agonists to one or more receptors and/or channels. Compounds known to activate the TRPV1 channel were applied to human tissue culture cells expressing the TRPV1 sensory channel either co-incident with the application of curcumin or following the application of curcumin by 5 minutes. Camphor and capsaicin are both known activators of the TRPV1 channel. However, these two compounds activate the sensory channel by different mechanisms. Curcumin, on the other hand, is a potent antagonist of the TPRV1 sensory channel. When capasaicin or camphor were added to cells expressing the TRPV1 sensory channel with curcumin, TRPV1 sensory activation was inhibited.
Chain of TRPV1 sensory channel (Q8NER1 whole entry): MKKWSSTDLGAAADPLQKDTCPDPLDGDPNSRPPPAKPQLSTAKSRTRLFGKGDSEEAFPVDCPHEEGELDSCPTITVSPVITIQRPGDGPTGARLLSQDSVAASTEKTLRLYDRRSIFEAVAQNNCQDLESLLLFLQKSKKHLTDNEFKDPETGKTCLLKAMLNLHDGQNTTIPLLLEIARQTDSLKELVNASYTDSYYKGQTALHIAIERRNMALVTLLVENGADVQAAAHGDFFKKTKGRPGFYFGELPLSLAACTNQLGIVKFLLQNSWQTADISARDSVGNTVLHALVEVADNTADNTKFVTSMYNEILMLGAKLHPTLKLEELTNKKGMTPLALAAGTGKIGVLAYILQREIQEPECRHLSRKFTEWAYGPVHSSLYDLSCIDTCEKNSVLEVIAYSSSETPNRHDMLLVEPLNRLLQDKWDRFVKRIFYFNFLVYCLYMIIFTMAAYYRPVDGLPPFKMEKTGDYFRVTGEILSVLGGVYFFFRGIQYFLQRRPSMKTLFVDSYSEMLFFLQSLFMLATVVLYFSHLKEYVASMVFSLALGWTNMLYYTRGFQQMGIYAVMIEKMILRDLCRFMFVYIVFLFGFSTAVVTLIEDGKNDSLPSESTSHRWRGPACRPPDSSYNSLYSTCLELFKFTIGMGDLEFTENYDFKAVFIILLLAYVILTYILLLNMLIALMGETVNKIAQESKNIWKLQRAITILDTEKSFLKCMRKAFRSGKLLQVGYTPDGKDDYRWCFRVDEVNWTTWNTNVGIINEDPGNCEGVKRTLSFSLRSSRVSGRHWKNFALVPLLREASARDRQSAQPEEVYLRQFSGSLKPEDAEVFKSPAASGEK

As to `CC12CCC(CC1=O)C2(C)C` (stereo not drawn) [camphor], the “sensation of burning at the pouch location and along the path of saliva that had been in contact with the pouch” value with human subjects is on record as “reduced the sensation of burning”. The “activation of sensory nerve fibers induced by nicotine” value in the assay on sensory nerve fibers is on record as “effectively inhibit”. As for `COc1cc(/C=C/C(=O)CC(=O)/C=C/c2ccc(O)c(OC)c2)ccc1O` [curcumin], on TRPV1 sensory channel, the TRPV1 sensory activation entry was “inhibited”.
